US20160262390A1, “FIELD APPLICATION OF SUGARS TO INCREASE CROP YIELD” (Minn-Dak Farmers Cooperative, priority 2015, published 2016)

How the values were obtained:
[1] = tested on: soybeans; assay: Pre-planting sugar application on soybeans, Hickson; format: in vivo, soybean; conditions: for Yield / Yield Increase Compared to Check Average: ND
Protocol: (§1) The field trials were conducted simultaneously in two different planting locations for each of the crops. One location was near the community of Foxhome in Wilkin County, Minnesota (hereafter referred to as “Foxhome”) while the second location was near the community of Hickson in Cass County, North Dakota (hereafter referred to as “Hickson”). The Foxhome and Hickson locations are on opposite sides of the Red River along the border of Minnesota and North Dakota and separated by a distance exceeding 40 miles. Generally, the Foxhome location has heavier clay loam soil conditions while Hickson has sandy loam soil conditions.
(§2) At each of the Foxhome and Hickson locations, a total of thirty two (32) treatments were conducted for each crop (sugarbeets, soybeans, corn, wheat). Each treatment was replicated four times arranged in a Randomized Complete Block (RCB) Design in the same field. Each replication consisted of a plot measuring twenty five (25) feet in length and eleven (11) feet in width. In selecting the particular seed types for evaluation, popular commercial varieties to the region were utilized. For the row crops (sugarbeets, soybeans, corn) each replication included a width of six (6) rows with twenty two (22) inch row spacing and having a row length of twenty five (25) feet. The wheat was planted in accordance with standard commercial practices. To reduce/eliminate any treatment impacts between adjacent plots for the crops, only the four (4) interior rows of each plot were treated and evaluated for row crops, while for wheat, only the interior 7.33 feet of each plot were treated and evaluated. With the exception of the treatment program applied to the individual plots, which will be discussed below, conventional commercial growing practices for each planting location were otherwise followed during the field trials. While the individual plots at the same location, Hickson or Foxhome, experienced essentially the same growing conditions throughout the season, there were various differences associated with localized precipitation, general growing conditions, soil classification and the like, which contributed to performance differences between the Hickson and Foxhome locations.
(§3) The treatment regimen at each location for each of the tested crops included two (2) untreated treatments (Treatments 31 and 32) in which no sugar was applied and constitute the control elements. […] Six (6) treatments (Treatments 13-18) included the liquid application of high fructose corn syrup (hereafter “HFCS”) at varying rates. Six treatments (Treatments 19-24) included the liquid application of dextrose (hereafter “LIQDEX”) at varying rates. Six (6) treatments (Treatments 25-30) included the application of powdered cellulose (hereafter “POWCEL”) at varying rates. For the sugar applied in a solid form, granulated or powdered, field application was conducted via conventional broadcast spreading. For the sugar applied in a liquid form, a liquid concentrate was mixed and diluted with water in a tank and a conventional sprayer was configured such that the liquid was sprayed so as to have the same sugar equivalent (measured in pounds/per acre) as the sugar in solid form. Regardless of whether the sugar was applied as a solid or liquid, the sugar was applied directly onto the soil before spring tillage, lightly worked into the ground and followed by planting of the crop seed in the treated ground. A summary of application rates for each plot treatments are contained in Table 7 below and were used consistently with each of the crops (sugarbeets, soybeans, corn, wheat).
(§4) To test the impact of pre-planting application rates and sugar source on soybeans, identical field trials using Syngenta brand soybean seed were conducted at the Foxhome and Hickson locations. Planting of the soybean seed and harvest of the soybeans were conducted on approximately the same dates so as to have essentially the same growing season. […]

[2] = tested on: microflora that are present in the soil; assay: Solvita Soil CO2-Burst test of pre-emergent soil samples, soybean trial in Hickson
Protocol: In an attempt to quantify this boost, soil samples were taken during some of the previously discussed trials. These samples were tested using a standard Solvita Soil CO2-Burst Test Kit to generate measurements associated with CO2 respiration which can be used as an indicator of active soil carbon, soil microbial biomass and the potential for nutrient release beneficial to crop production. Generally, the higher the measured levels of CO2, the more advantageous the soil is for crop production.
The results of the CO2-Burst Testing are summarized in Table 17 below (using the replication designations from Table 7): […]

[3] = tested on: corn; assay: Pre-planting sugar application on corn, Foxhome; format: in vivo; conditions: for Yield / Yield Increase Compared to Check Average: MN
Protocol: as §1, §2, §3
as §4, with “corn,” for “soybeans,”, “Peterson Farms” for “Syngenta”, “corn” for “soybean”, “corn” for “soybeans”, “on” for “on approximately”

[4] = tested on: corn; assay: Pre-planting sugar application on corn, Hickson; format: in vivo; conditions: for Yield / Yield Increase Compared to Check Average: ND
Protocol: as §1, §2, §3
as §4, with “corn,” for “soybeans,”, “Peterson Farms” for “Syngenta”, “corn” for “soybean”, “corn” for “soybeans”, “on” for “on approximately”

[5] = tested on: soybeans; assay: Pre-planting sugar application on soybeans, Foxhome; format: in vivo, soybean; conditions: for Yield / Yield Increase Compared to Check: MN
Protocol: as §1, §2, §3, §4

[6] = tested on: wheat; assay: Pre-planting sugar application on wheat, Hickson; format: in vivo; conditions: for Yield / Yield Increase Compared to Check: ND
Protocol: as §1, §2, §3
as §4, with “wheat,” for “soybeans,”, “Westbred Mayville wheat” for “Syngenta brand soybean”, “wheat” for “soybean”, “wheat” for “soybeans”, “on” for “on approximately”

[7] = six rates (25-250 pounds/Acre) per sugar, thirty in all

OC[C@H]1O[C@@](CO)(O[C@H]2O[C@H](CO)[C@@H](O)[C@H](O)[C@H]2O)[C@@H](O)[C@@H]1O [GS, sucrose]
Yield ([1]; pre-planting 25 pounds/Acre): 62.54 Bushels/Acre
Yield Increase Compared to Check Average ([1]; pre-planting 25 pounds/Acre): 1.28%
Yield ([1]; pre-planting 50 pounds/Acre): 63.6 Bushels/Acre
Yield Increase Compared to Check Average ([1]; pre-planting 50 pounds/Acre): 3.00%
Yield ([1]; pre-planting 100 pounds/Acre): 62.06 Bushels/Acre
Yield Increase Compared to Check Average ([1]; pre-planting 100 pounds/Acre): 0.50%
Yield ([1]; pre-planting 150 pounds/Acre): 64.21 Bushels/Acre
Yield Increase Compared to Check Average ([1]; pre-planting 150 pounds/Acre): 3.98%
Yield ([1]; pre-planting 200 pounds/Acre): 62.15 Bushels/Acre
Yield Increase Compared to Check Average ([1]; pre-planting 200 pounds/Acre): 0.65%
Yield ([1]; pre-planting 250 pounds/Acre): 61.12 Bushels/Acre
Yield Increase Compared to Check Average ([1]; pre-planting 250 pounds/Acre): −1.02%
number of treatments showing yield improvement compared to check average [1, 7]: five of the six
CO2 Burst ppm ([2]; sugar amount 50 pounds/acre): 63 ppm
CO2 Increase as Compared to Check Average ([2]; sugar amount 50 pounds/acre): 38.46%
CO2 Burst ppm ([2]; sugar amount 150 pounds/acre): 75 ppm
CO2 Increase as Compared to Check Average ([2]; sugar amount 150 pounds/acre): 64.84%
CO2 Burst ppm ([2]; sugar amount 250 pounds/acre): 53 ppm
CO2 Increase as Compared to Check Average ([2]; sugar amount 250 pounds/acre): 16.48%
Yield ([3]; pre-planting 25 pounds/Acre): 271.62 Bushels/Acre
Yield Increase Compared to Check Average ([3]; pre-planting 25 pounds/Acre): 2.20%
Yield ([3]; pre-planting 50 pounds/Acre): 272.13 Bushels/Acre
Yield Increase Compared to Check Average ([3]; pre-planting 50 pounds/Acre): 2.40%
Yield ([3]; pre-planting 100 pounds/Acre): 274.80 Bushels/Acre
Yield Increase Compared to Check Average ([3]; pre-planting 100 pounds/Acre): 3.40%
Yield ([3]; pre-planting 150 pounds/Acre): 263.34 Bushels/Acre
Yield Increase Compared to Check Average ([3]; pre-planting 150 pounds/Acre): −0.91%
Yield ([3]; pre-planting 200 pounds/Acre): 264.61 Bushels/Acre
Yield Increase Compared to Check Average ([3]; pre-planting 200 pounds/Acre): −0.43%
Yield ([3]; pre-planting 250 pounds/Acre): 260.71 Bushels/Acre
Yield Increase Compared to Check Average ([3]; pre-planting 250 pounds/Acre): −1.90%
number of treatments showing yield improvement compared to check average [3, 7]: three of the six
Yield ([4]; pre-planting 25 pounds/Acre): 188.56 Bushels/Acre
Yield Increase Compared to Check Average ([4]; pre-planting 25 pounds/Acre): 22.03%
Yield ([4]; pre-planting 50 pounds/Acre): 153.24 Bushels/Acre
Yield Increase Compared to Check Average ([4]; pre-planting 50 pounds/Acre): −0.83%
Yield ([4]; pre-planting 100 pounds/Acre): 165.78 Bushels/Acre
Yield Increase Compared to Check Average ([4]; pre-planting 100 pounds/Acre): 7.29%
Yield ([4]; pre-planting 150 pounds/Acre): 161.20 Bushels/Acre
Yield Increase Compared to Check Average ([4]; pre-planting 150 pounds/Acre): 4.32%
Yield ([4]; pre-planting 200 pounds/Acre): 163.58 Bushels/Acre
Yield Increase Compared to Check Average ([4]; pre-planting 200 pounds/Acre): 5.86%
Yield ([4]; pre-planting 250 pounds/Acre): 156.06 Bushels/Acre
Yield Increase Compared to Check Average ([4]; pre-planting 250 pounds/Acre): 1.00%
number of treatments showing yield improvement compared to check average [4, 7]: five of the six
Yield ([5]; pre-planting 25 pounds/Acre): 70.03 Bushels/Acre
Yield Increase Compared to Check ([5]; pre-planting 25 pounds/Acre): 2.17%
Yield ([5]; pre-planting 50 pounds/Acre): 70.87 Bushels/Acre
Yield Increase Compared to Check ([5]; pre-planting 50 pounds/Acre): 3.40%
Yield ([5]; pre-planting 100 pounds/Acre): 70.78 Bushels/Acre
Yield Increase Compared to Check ([5]; pre-planting 100 pounds/Acre): 3.27%
Yield ([5]; pre-planting 150 pounds/Acre): 71.45 Bushels/Acre
Yield Increase Compared to Check ([5]; pre-planting 150 pounds/Acre): 4.25%
Yield ([5]; pre-planting 200 pounds/Acre): 67.22 Bushels/Acre
Yield Increase Compared to Check ([5]; pre-planting 200 pounds/Acre): −1.93%
Yield ([5]; pre-planting 250 pounds/Acre): 66.99 Bushels/Acre
Yield Increase Compared to Check ([5]; pre-planting 250 pounds/Acre): −2.26%
number of treatments showing yield improvement compared to check treatment 31 [5, 7]: four of the six
Yield ([6]; pre-planting 25 pounds/Acre): 51.82 Bushels/Acre
Yield Increase Compared to Check ([6]; pre-planting 25 pounds/Acre): 5.45%
Yield ([6]; pre-planting 50 pounds/Acre): 52.47 Bushels/Acre
Yield Increase Compared to Check ([6]; pre-planting 50 pounds/Acre): 6.78%
Yield ([6]; pre-planting 100 pounds/Acre): 49.94 Bushels/Acre
Yield Increase Compared to Check ([6]; pre-planting 100 pounds/Acre): 1.63%
Yield ([6]; pre-planting 150 pounds/Acre): 44.54 Bushels/Acre
Yield Increase Compared to Check ([6]; pre-planting 150 pounds/Acre): −9.36%
Yield ([6]; pre-planting 200 pounds/Acre): 50.25 Bushels/Acre
Yield Increase Compared to Check ([6]; pre-planting 200 pounds/Acre): 2.26%
Yield ([6]; pre-planting 250 pounds/Acre): 50.40 Bushels/Acre
Yield Increase Compared to Check ([6]; pre-planting 250 pounds/Acre): 2.56%
number of treatments showing yield improvement compared to check average [6, 7]: five of the six
